Patent US5583155A, “6-amino-1,2-benzopyrones useful for treatment of viral diseases” (Octamer, Inc., priority 1994, dated 1996)
Values after ≈ are worked out from the molar mass of the structure shown. “Also recorded” adds a separate entry of the source. Like-named read-outs stand apart in the source and are kept apart here.

Key:
[1] = system: RSV; assay: microbe, parasite or virus in culture; type: cell-based, Respiratory Syncytium virus (patient isolate)
[2] = system: HIV in AA-2 cells; assay: HIV propagation in AA-2 cells (cytopathogenicity); type: cell-based; settings: for inhibition at 3000 µM: varying HIV dilutions, read-out: HIV growth inhibition in AA-2 cells
Protocol: (§1) Whereas the activation of latent HIV by various DNAs and its prevention by 6-ABP were shown above, the following experiments examine the effects of 6-ABP on the direct propagation of highly virulent HIV strain obtained from NIH in Molt III cells, using cell supernatant as source of virus on AA-2 and MT2 cells in culture. More than 60 tests were performed varying virus titers, time of exposure, and exposure to 6-ABP.
The effect of 1 and 3 mM 6-ABP on the rate of HIV propagation is assayed by cytopathogenicity at a fixed HIV dilution 1:1600.
FIG. 7 illustrates the effect of 3 mM 6-ABP on HIV growth inhibition in AA-2 cells after 3 days and 6 days. The culture was exposed to 3 mM of the drug at varying HIV dilutions. 6-ABP concentration acting for 3 or 6 consecutive days on AA-2 cells is depicted as a function of virus concentration (given as HIV dilution on the abscissa).

[3] = system: HIV in AA-2 cells; assay: HIV replication in AA-2 cells (p 24 ELISA); type: cell-based; settings: 3 mM
Protocol: The effects of 3 mM 6-ABP on HIV replication in AA-2 cells using the same experimental set-up as for FIG. 7 was followed by the conventional analysis of p 24 formation by automated ELISA tests. The results are shown in FIG. 8, where as in FIG. 7, the influence of varying HIV concentrations infecting HIV dilution, from 1:100 to 1:1600 or p 24 input, as shown in graph, was monitored.

[4] = system: HIV in MT-2 cells; assay: HIV syncytia formation in MT-2 cells; type: cell-based; settings: 3 mM
Protocol: as §1
Equivalent results, shown in FIG. 9, were obtained with MT-2 cells. In FIG. 9, the inhibition of syncytia formation was quantitatively assayed. […] At very high HIV titre, at 1:100 dilution the untreated syncitia formation was 150 times higher than in treated culture.

[5] = system: AA-2 cells; assay: AA-2 cell count and viability; type: cell-based; settings: 3 mM
Protocol: The effects of 6-ABP treatment of AA-2 cells was directly analyzed by cell count and viability tests including cloning efficiency and trypan blue uptake. The AA2 cell culture having initial cell count per well 0.5×10^5 was submitted to treatment with 3 mM of 6-ABP and compared to untreated (Control) cell culture. The cells were counted 4 days after the treatment with 6-ABP.

[6] = system: HIV in human lymphoblasts; assay: HIV in human lymphoblasts (reverse transcriptase assay); type: cell-based; settings: 18 hours exposure, FIG. 11E
Protocol: (§2) In FIGS. 11A through 11E, normal lymphoblasts stimulated with PHA are infected with HIV and at the same time are submitted to various concentrations from 0-10 mM 6-ABP. After the short exposure of 18 hours, both HIV and 6-ABP are removed, FIGS. 11A, 11C, 11E and the 6-ABP in the same concentrations is readded up to 4 days to cultures shown in FIGS. 11B and 11D. At 4 days, proliferation index measured by ^3 H-thymidine incorporation is determined in FIGS. 11A and 11B. […] In FIGS. 11C and […], the viral synthesis or inhibition is measured by p 24 assay.
Human peripheral blood mononuclear cells from a noninfected, normal individual were stimulated for 2 to 3 days with phytohemagglutinin in tissue culture, washed, aliquoted and cultured overnight with 200 TCID or 50 TCID of HIV and were untreated or treated with 0.01, 0.1, 1.0 or 10.0 mM 6-ABP. An additional control was incubated with 10 mM 6-ABP without presence of HIV. After the overnight incubation, […]. The cells were placed in culture in medium containing IL-2, but in the absence of additional 6-ABP, and monitored at 6 days and 12 days for the production of HIV-p24 core antigen, or for measurements of particulate reverse transcriptase. […]
HIV p24 antigen was measured by ELISA, with a cutoff of 5 pgm/ml. […]

[7] = system: human lymphoblasts; assay: Lymphoblast DNA synthesis / viability (3H-thymidine incorporation); type: cell-based
Protocol: as §2
The viability of lymphoblasts was measured by incubating the cells exposed to IL-2, HIV and to 6-ABP with H3-thymidine for 6 hours on the sixth day of culture and determining the amount of cpm incorporated per 100,000 cells placed in culture.
In order to ascertain that relatively short 18 hours exposure of human lymphoblasts selectively blocks HIV replication and has minimal effects on DNA synthesis of lymphoblasts, the proliferation, p24 and reverse transcriptase experiments were also performed, as shown in FIG. 11.
In panel A (top) DNA synthesis of lymphoblasts is assayed as a function of 6-ABP concentration. In panel A' (lower curve) the decay of HIV replication is simultaneously determined, and in A "panel" reverse transcriptase was assayed. All these are accepted assays for HIV replication.

[8] = system: ADPRT; assay: Binding to ADPRT; settings: enzymes other than ADPRT
[9] = Aqueous solubility and solution stability; type: physicochemical
[10] = system: ADPRT; settings: FEBS Lett., 212:73 (1987); cited from earlier work
[11] = system: HIV (activated by HSV IE-110) in U937 cells; assay: HIV growth activated by HSV IE110 in U937 cells (syncytium-forming assay)
Protocol: For the purpose of determining the ability of 6-ABP to inhibit HIV growth activation, the duplicate cells cultures were used. In experiments 1 and 2, U937 cells were transfected with HSV IE-110 gene and, CMV IE gene and infected HIV. […] In experiment 3, U937 cells transfected with HSV IE-110 and infected with HIV were treated with 3 mM of 6-ABP.
In all experiments shown in FIG. 3 and 4, the cells were exposed to 3 mM drug for 24 hrs.
DNA transfection was performed with DEAE dextran. Briefly, U937 cells (5×10^6) were exposed for 60 min. at 37° C. to a mixture of DEAE Dextran (1.05 ug/ml) and DNA in STBS buffer (25 mM Tris HCl, having pH 7.5, 137 mM NaCl, 0.5 MgCl2, 0.7 mM CaCl2 and 5 mM KCl and 0.6 mM Na2 HPO4) in 15 ml snap cap 6×35 mm polyethylene dishes from Costar, Cambridge, Mass., at 5×10^6 cells per well. Routinely, transfection mixtures contained 1.0 ug of target supercoiled plasmid and 0.1 ug DNA to equalize nucleic acid concentration effects. Transfected cells were harvested 40 to 44 hr post transfection in CAT harvest buffer (40 mM Tris, having pH 7.4 150 mM NaCl, 1 mM EDTA) and stored at -20° C. until assayed.
In one series of experiments, the effect of HSV IE110 and CMV IE2 gene expression on HIV replication using the syncytium assay formation on MT2 cells that defines HIV growth was examined. The ability of 6-ABP to inhibit HIV growth activation was studied in duplicate cultures. U937 cells were transfected with HSV IE110 CMV IE genes or mock transfected with pBR322 plasmid and duplicate cells were pretreated with HIV. Virus (HIV) growth was assayed at various times thereafter. HIV titers are expressed as syncytia forming units/ml.
Transfection was 24 hours before HIV infection. Sampling was done at days 3, 5, 6, and 8 post infection with HIV. 6-ABP treatment was 24 hours prior to transfection in order to allow intercellular 6-ABP concentration to equilibrate with external drug concentration. The timing chosen and drug dosage relate to drug penetration.

Nc1ccc2oc(=O)ccc2c1 [6-ABP, 6-amino-1,2-benzopyrone]
Virus Titer +6-ABP (RSV) ([1]; 1 mM 6-ABP, 24 hours before infection): 1 × 10^5 TCID50 | effect on RSV growth ([1]; 6-ABP treatment): no effect | inhibition at 1000 µM ([1]; human respiratory syncytial virus, 1 mM 6-ABP, 24 hours before infection): 0% | HIV propagation in AA-2 cells ([2]; 1 mM, HIV dilution 1:1600): able to suppress the HIV propagation only slightly | HIV replication, AA-2 cells ([2]; 3 mM, Example 5): complete abrogation of HIV replication | HIV propagation in AA-2 cells ([2]; 3 mM, day 6, HIV dilution 1:1600): completely eliminates HIV propagation | inhibition at 3000 µM ([2]; Human immunodeficiency virus 1, 72 h, 3 mM, 3 days): 70 to 100% | inhibition at 3000 µM ([2]; Human immunodeficiency virus 1, 144 h, 3 mM, 6 days): 25 to 100% | HIV replication ([3]; beyond a virus dilution of 1:1400): profoundly inhibited HIV replication | p 24 generation ([3]; day 4, 1:1400 virus dilution): completely suppressed p 24 generation | HIV production / syncytia formation in MT-2 cells [4]: nearly completely suppressed HIV production | untreated syncytia formation relative to treated culture ([4]; HIV titre 1:100 dilution): 150 times | cell proliferation ([5]; AA-2 cells): inhibitory effect on cell proliferation | Viability test / cellular toxicity ([5]; AA-2 cells, cloning efficiency and trypan blue uptake): no evidence of toxic effects; also recorded: does not coincide with any detectable cellular toxicity | Cell Count After 4 days ([5]; initial count per well 0.5 × 10^5, control 1.5 × 10^5): 0.7 × 10^5 (± 35%) | virus inhibition, reverse transcriptase assay [6]: virus inhibition | viability of lymphoblasts ([7]; 4 consecutive days exposure): viability of lymphoblasts was not affected by the drug | DNA synthesis of lymphoblasts ([7]; 18 hours exposure, FIG. 11A): does not influence genomic DNA synthesis; also recorded: did not effect the DNA synthesis; also recorded: cellular DNA synthesis virtually unaffected | DNA synthesis of lymphoblasts ([7]; 4 days exposure, FIG. 11B): temporarily also inhibited; also recorded: inhibitory effect on lymphoblast DNA synthesis | effect on other enzymes [8]: no other enzymes are activated or inhibited | solution stability ([9]; 10-12 mM solution, pH 7.2-7.9, room temperature, in the dark): stable for months at room temperature | solubility ([9]; aqueous media, pH 7.2-7.9): 10 to 12 mM (≈ 1610 to 1930 µg/mL) | degraded ([9]; aqueous solution, 10-12 mM solution, months at room temperature, in the dark, read-out: decomposition of solution): < 0.1% | binding to ADPRT [10]: specifically binding to ADPRT at the same site that also binds catalytically effective DNA termini | effect on activation by HSV IE110 ([11]; 1 mM): virtually abrogates activation by HSV IE110 | HIV growth, U937 + HSV IE110 + 6-ABP ([11]; 1 mM, day 3): 32 SFU/ml | HIV growth, U937 + HSV IE110 + 6-ABP ([11]; 1 mM, day 5): 64 SFU/ml | HIV growth, U937 + HSV IE110 + 6-ABP ([11]; 1 mM, day 6): 100 SFU/ml | HIV growth, U937 + HSV IE110 + 6-ABP ([11]; 1 mM, day 8): 100 SFU/ml | effect on IE-110(HSV)-activated growth of HIV ([11]; 3 mM, FIG. 3): profoundly depresses IE-110(HSV)-activated growth of HIV | HIV growth, U937 + HSV IE-110, reduced to background levels ([11]; 3 mM, days 4 to 8, FIG. 3): 250-300 SFU per ml
